Among the test systems are Bacillus subtilis; Escherichia coli; Klebsiella pneumoniae; Micrococcus luteus; Proteus mirabilis; Pseudomonas aeruginosa; Salmonella typhimurium; Shigella dysenteriae; Staphylococcus aureus; Escherichia coli K-12; Candida albicans; Escherichia coli UB1005.
Common to all, as to assay: ≥ marks a high value that may be exact or a test limit, other limits are often not marked, values filed in µg/mL are converted to µM
Experiment [1] deals with Staphylococcus epidermidis.
In experiment [2] the test system is Staphylococcus aureus USA 300.
In experiment [3] the test system is Bacillus subtilis ATCC 6633.
Experiment [4] concerns Escherichia coli ATCC 10536.
The subject of experiment [5] is Escherichia coli DH5alpha.
Experiment [6] relates to Staphylococcus aureus ATCC 9144.
Experiment [7] relates to Escherichia coli ATCC 25922.
In experiment [8] the test system is Klebsiella pneumoniae ATCC 13883.
Experiment [9] concerns Pseudomonas aeruginosa PAO1.
The subject of experiment [10] is Cronobacter sakazakii DPC 6440.
Experiment [11] relates to Listeria monocytogenes LO28.
Experiment [12] relates to Pseudomonas aeruginosa H103.
The subject of experiment [13] is Salmonella enterica serovar Typhimurium.
Experiment [14] has as its system Staphylococcus aureus ATCC 25923.
In experiment [15] the test system is Enterococcus faecalis ATCC 29212.

Converted amounts (≈) assume the structure as drawn.

From DBAASP come the findings set out here.

In general, MIC refers to the lowest concentration found to suppress growth. The low end stands for a more susceptible organism, the high end for a less susceptible organism.

Consider `CC(C)C[C@H](NC(=O)[C@H](C)NC(=O)CNC(=O)[C@H](CC(C)C)NC(=O)[C@@H](N)Cc1ccccc1)C(=O)N[C@@H](Cc1ccccc1)C(=O)N[C@@H](CCCCN)C(=O)N[C@@H](Cc1ccccc1)C(=O)N[C@@H](C)C(=O)N[C@@H](CO)C(=O)N[C@@H](CCCCN)C(=O)O` [FLGALFKFASK], for which the MIC against Bacillus subtilis was 20.4 µM (≈ 25 µg/mL); in the experiment on Escherichia coli, 81.4 µM (≈ 100 µg/mL); against Klebsiella pneumoniae, 81.4 µM (≈ 100 µg/mL); in the experiment on Micrococcus luteus, 20.4 µM (≈ 25 µg/mL); in the experiment on Proteus mirabilis, not below 163 µM; against Pseudomonas aeruginosa, more than 163 µM. Besides, the MIC against Salmonella typhimurium is not below 163 µM; in the experiment with Shigella dysenteriae, not below 81.4 µM; in the experiment with Staphylococcus aureus, 40.7 µM (≈ 50 µg/mL); in experiment [1], not below 81.4 µM.
For the compound `CC(C)[C@H](NC(=O)[C@H](CO)NC(=O)[C@H](Cc1cnc[nH]1)NC(=O)[C@H](Cc1ccccc1)NC(=O)[C@H](C)NC(=O)[C@H](CCCCN)NC(=O)CNC(=O)[C@H](Cc1ccccc1)NC(=O)CN)C(=O)N[C@@H](CO)C(=O)N[C@@H](CC(N)=O)C(=O)N[C@@H](Cc1ccccc1)C(=O)N[C@@H](C)C(=O)N[C@@H](CCCCN)C(=O)N[C@@H](CCCCN)C(=O)N[C@@H](Cc1cnc[nH]1)C(=O)N[C@@H](CCCCN)C(=O)N[C@H](C(=O)N[C@@H](C)C(N)=O)[C@@H](C)O` [GFGKAFHSVSNFAKKHKTA], the MIC (in the experiment on Escherichia coli K-12; in [2]) was not below 100 µM throughout.
`CC[C@H](C)[C@H](NC(=O)[C@H](CCCN=C(N)N)NC(=O)[C@@H](NC(=O)[C@@H](NC(=O)[C@@H]1CCCN1C(=O)[C@@H](NC(=O)[C@@H](NC(=O)[C@@H](NC(=O)[C@@H]1CCCN1C(=O)CNC(=O)[C@H](Cc1ccc(O)cc1)NC(=O)[C@H](CCCCN)NC(=O)[C@H](CCCCN)NC(=O)[C@H](Cc1c[nH]c2ccccc12)NC(=O)[C@H](C)NC(=O)[C@H](CCCN=C(N)N)NC(=O)[C@H](CC(C)C)NC(=O)[C@@H](NC(=O)[C@H](CCCCN)NC(=O)[C@H](CCCN=C(N)N)NC(=O)CNC(=O)[C@H](CC(C)C)NC(=O)[C@H](CO)NC(=O)[C@H](CCCN=C(N)N)NC(=O)[C@H](C)NC(=O)CNC(=O)CN)[C@@H](C)CC)[C@@H](C)CC)[C@@H](C)CC)C(C)C)[C@@H](C)CC)[C@@H](C)CC)C(N)=O` [GGARSLGRKILRAWKKYGPIIVPIIRI]: the MIC in experiment [3] stood at 1.2 µM (≈ 3.64 µg/mL); in [4] it was 2.2 µM (≈ 6.67 µg/mL); in experiment [5] it was 2.5 µM (≈ 7.58 µg/mL); in experiment [6], 3.1 µM (≈ 9.4 µg/mL).
`CC[C@H](C)[C@H](NC(=O)CN)C(=O)NCC(=O)N[C@@H](C)C(=O)N[C@H](C(=O)N[C@@H](CC(C)C)C(=O)N[C@@H](CCCCN)C(=O)N[C@H](C(=O)N[C@@H](C)C(=O)N[C@H](C(=O)N[C@H](C(=O)NCC(=O)N[C@@H](CC(C)C)C(=O)N1CCC[C@H]1C(=O)N[C@@H](C)C(=O)N[C@@H](C)C(=O)N[C@H](C(=O)N[C@@H](CO)C(=O)N[C@@H](Cc1c[nH]c2ccccc12)C(=O)N[C@H](C(=O)N[C@@H](CCCCN)C(=O)N[C@@H](CCCN=C(N)N)C(=O)N[C@@H](CCCCN)C(=O)N[C@@H](CCCN=C(N)N)C(=O)N[C@@H](CCC(N)=O)C(=O)N[C@@H](CCC(N)=O)C(N)=O)[C@@H](C)CC)[C@@H](C)CC)[C@@H](C)O)[C@@H](C)O)C(C)C)C(C)C` [GIGAVLKVATTGLPAAISWIKRKRQQ]: the MIC in experiment [3] was 6 µM (≈ 16.6 µg/mL); in experiment [4], 3.3 µM (≈ 9.12 µg/mL); in experiment [5], 4.2 µM (≈ 11.6 µg/mL); in experiment [6], 4 µM (≈ 11 µg/mL).
For `CC(C)C[C@H](NC(=O)[C@H](CC(C)C)NC(=O)[C@H](CCCCN)NC(=O)[C@H](CC(C)C)NC(=O)CNC(=O)[C@H](CC(C)C)NC(=O)[C@H](CCCCN)NC(=O)[C@H](CC(C)C)NC(=O)[C@H](CC(C)C)NC(=O)[C@H](CC(C)C)NC(=O)[C@H](CO)NC(=O)[C@H](CC(C)C)NC(=O)CN)C(N)=O` [GLSLLLKLGLKLL], the MIC is more than 25 µM in experiment [7], 25 µM (≈ 34.5 µg/mL) in experiment [8], more than 25 µM in experiment [9] and 1.13 µM (≈ 1.56 µg/mL) in [2].
Consider `CC[C@H](C)[C@H](NC(=O)[C@H](Cc1c[nH]c2ccccc12)NC(=O)[C@@H]1CCCN1C(=O)[C@H](CCCCN)NC(=O)[C@H](CCSC)NC(=O)[C@H](C)NC(=O)[C@@H](N)CCCCN)C(=O)N[C@@H](CCC(N)=O)C(=O)N1CCC[C@H]1C(=O)N[C@@H](CCCCN)C(=O)N[C@H](C(=O)N[C@@H](CCCCN)C(=O)N[C@H](C(=O)N[C@H](C(=O)N1CCC[C@H]1C(=O)O)[C@@H](C)CC)C(C)C)[C@@H](C)O` [KAMKPWIQPKTKVIP], for which the MIC in experiment [10] was not below 1250 µM; in experiment [11] it was not below 156 µM.
As for `CC[C@H](C)[C@H](NC(=O)[C@H](CCCN=C(N)N)NC(=O)[C@H](Cc1ccccc1)NC(=O)[C@H](CCC(N)=O)NC(=O)[C@@H](N)CCCCN)C(=O)N[C@@H](CCCN=C(N)N)C(=O)N[C@H](C(=O)N[C@@H](CCCN=C(N)N)C(=O)N[C@H](C(=O)N[C@H](C(=O)N[C@@H](CCCN=C(N)N)C(=O)N[C@@H](CCCCN)C(N)=O)[C@@H](C)CC)C(C)C)C(C)C` [KQFRIRVRVIRK], the minimum inhibitory concentration (MIC) against Candida albicans was found to be 3.75 µM (≈ 6 µg/mL); against Escherichia coli UB1005 it was 1.88 µM (≈ 3 µg/mL); in experiment [12] it was 3.75 µM (≈ 6 µg/mL); in experiment [13], 3.75 µM (≈ 6 µg/mL); in experiment [14], 7.5 µM (≈ 12 µg/mL); in experiment [1], 1 µM (≈ 1.6 µg/mL).
`CC[C@H](C)[C@H](NC(=O)[C@H](CCCN=C(N)N)NC(=O)[C@H](C)NC(=O)[C@H](CC(C)C)NC(=O)[C@@H](N)CCCN=C(N)N)C(=O)N[C@H](C(=O)N1CCC[C@H]1C(=O)N[C@H](C(=O)N[C@@H](CCCN=C(N)N)C(=O)N[C@H](C(=O)N[C@@H](C)C(=O)N[C@@H](CCCN=C(N)N)C(=O)O)C(C)C)[C@@H](C)CC)C(C)C` [RLARIVPIRVAR]: the MIC against Candida albicans is more than 176 µM; in experiment [15] it was more than 176 µM; in the experiment with Escherichia coli UB1005, not below 176 µM; in experiment [12], not below 176 µM; in experiment [13] it was not below 176 µM; in [14] it was more than 176 µM. Besides, the MIC in experiment [1] was not below 176 µM.
For `NCCCC[C@H](NC(=O)[C@H](CCCN=C(N)N)NC(=O)[C@H](CCCN=C(N)N)NC(=O)[C@H](Cc1c[nH]c2ccccc12)NC(=O)[C@@H](N)CCCN=C(N)N)C(=O)N[C@@H](Cc1c[nH]c2ccccc12)C(=O)N[C@@H](Cc1c[nH]c2ccccc12)C(=O)N[C@@H](Cc1c[nH]c2ccccc12)C(=O)N[C@@H](Cc1c[nH]c2ccccc12)C(=O)O` [RWRRKWWWW], the MIC amounted to 5.6 µM (≈ 8.66 µg/mL) in the experiment on Candida albicans; 2.8 µM (≈ 4.33 µg/mL) in experiment [15]; 1.4 µM (≈ 2.16 µg/mL) in the experiment on Escherichia coli UB1005; 11.2 µM (≈ 17.3 µg/mL) in experiment [12]; 2.8 µM (≈ 4.33 µg/mL) in experiment [13]; 0.7 µM (≈ 1.08 µg/mL) in experiment [14]. This compound came in with an MIC in [1] of 0.7 µM (≈ 1.08 µg/mL).
For `CC[C@H](C)[C@H](NC(=O)[C@@H](N)Cc1c[nH]c2ccccc12)C(=O)N[C@@H](C)C(=O)N1CCC[C@H]1C(=O)N[C@@H](CCCCN)C(=O)N[C@H](C(=O)N[C@@H](CCCCN)C(=O)N[C@H](C(=O)N[C@H](C(=O)N1CCC[C@H]1C(=O)N[C@@H](Cc1ccc(O)cc1)C(=O)N[C@H](C(=O)N[C@@H](CCCN=C(N)N)C(=O)N[C@@H](Cc1ccc(O)cc1)C(=O)N[C@@H](CC(C)C)C(=O)O)C(C)C)[C@@H](C)CC)C(C)C)[C@@H](C)O` [WIAPKTKVIPYVRYL], the results for the MIC in experiment [10] and in experiment [11] were not below 78.1 µM and 19.5 µM (≈ 36.1 µg/mL), respectively.
In the same order, the values of `CC[C@H](C)[C@H](NC(=O)[C@@H](N)Cc1c[nH]c2ccccc12)C(=O)N[C@@H](CCC(N)=O)C(=O)N1CCC[C@H]1C(=O)N[C@@H](CCCCN)C(=O)N[C@H](C(=O)N[C@@H](CCCCN)C(=O)N[C@H](C(=O)N[C@H](C(=O)N1CCC[C@H]1C(=O)N[C@@H](Cc1ccc(O)cc1)C(=O)N[C@H](C(=O)N[C@@H](CCCN=C(N)N)C(=O)N[C@@H](Cc1ccc(O)cc1)C(=O)N[C@@H](C)C(=O)O)C(C)C)[C@@H](C)CC)C(C)C)[C@@H](C)O` [WIQPKTKVIPYVRYA] are not below 78.1 µM and not below 39.1 µM.
